Where two headings read alike, the source gives them in different places.
Tests used:
[1] = test system: human acute monocytic leukemia cell line MV-4-11; assay: Assay 2 (Cell Proliferation Assay), ATP quantitation (CellTiter-Glo); format: cell-based; settings: MV-4-11 cells, read-out: Assay 2 (EC50, inhibition of cell proliferation)
Experimental: Potencies of inhibitor compounds against cell proliferation was assessed against the human acute monocytic leukemia cell line MV-4-11 (ATCC® CRL-9591™) based on ATP quantitation. MV-4-11 cells or toxicity control HL-60 cells (ATCC® CCL-240™) were incubated in 96-well tissue culture plates (1.67×10^4 cells in 200 μL culture media containing 10% FBS per well) with or without test compound for 72 h at 37° C., 5% CO2. After incubation, each well was mixed by pipetting and 95 μL from each well was transferred to a well in 96-well black OptiPlate® plates (PerkinElmer). An equal volume of CellTiter-Glo® Luminescent Cell Viability Assay reagent (Promega) was added to each well, followed by mixing for 5 min on an orbital plate shaker. Luminescence was measured on a Wallac EnVision 2104 Multilabel Reader (PerkinElmer) to quantitate ATP. Percent inhibition of cell proliferation by test compounds was calculated based on uninhibited cell growth (DMSO) versus cells treated with a potent menin inhibitor at a concentration yielding at least 100×LD50.

[2] = molecular target: T1, menin/MLL binding (biotinylated wild-type or mutated menin and MLL-AF9 fusion protein) (Homo sapiens, UniProt O00255); assay: Assay 1 (Binding Assay): AlphaLISA menin/MLL binding; settings: 5 nM biotinylated menin, MLL-AF9-FLAG lysate
T1 construct: biotinylated (1) wild-type menin or (2) mutated menin (described in Nature (2012) Vol. 482, pp. 542-548); fused on or other part: Biotin attached chemically (Sulfo-NHS-Biotin); no fused second protein is printed for menin
T1 sequence (O00255 1-459 limits assumed): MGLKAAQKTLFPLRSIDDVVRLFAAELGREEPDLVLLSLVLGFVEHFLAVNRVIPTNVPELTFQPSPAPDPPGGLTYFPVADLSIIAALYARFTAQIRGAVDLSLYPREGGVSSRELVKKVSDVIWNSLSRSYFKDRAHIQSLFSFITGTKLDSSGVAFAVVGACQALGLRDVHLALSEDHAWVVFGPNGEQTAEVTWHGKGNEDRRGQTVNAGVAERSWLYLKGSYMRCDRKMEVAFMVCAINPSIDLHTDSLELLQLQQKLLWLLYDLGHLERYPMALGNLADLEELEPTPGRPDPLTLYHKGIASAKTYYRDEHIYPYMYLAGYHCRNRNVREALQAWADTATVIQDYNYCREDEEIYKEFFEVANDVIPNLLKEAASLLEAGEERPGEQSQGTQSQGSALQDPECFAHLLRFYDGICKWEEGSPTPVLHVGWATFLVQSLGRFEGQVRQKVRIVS
Experimental: Potencies of inhibitor compounds against menin/MLL binding were assessed by AlphaLISA assay using biotinylated (1) wild-type menin or (2) mutated menin (described in Nature (2012) Vol. 482, pp. 542-548) and MLL-AF9 fusion protein bearing a FLAG epitope at its C-terminus. Menin proteins were expressed in E. coli and covalently modified with biotin using EZ-Link™ Sulfo-NHS-Biotin (ThermoFisher Cat. No. 21217) according to manufacturer's protocol. MLL1-1,396 fused to AF91-92 and the C-terminal FLAG peptide was expressed in HEK293 cells and used as a lysate cleared at 21,000×g for 10 min.
Compounds (2 μL of solutions in DMSO) were dispensed in white 96-well half-area plates (Corning Cat. No. 3693) and incubated for 30 min at RT with 5 nM biotinylated menin and appropriate amount of MLL-AF9-FLAG lysate in 40 μL of 50 mM Tris-HCl buffer pH 7.4 containing 5% (v/v) DMSO, 50 mM NaCl, 0.01% (w/v) bovine serum albumin (BSA) and 1 mM DTT. To this incubation mixture, 40 μl of AlphaLISA anti-FLAG acceptor (PerkinElmer Cat. No. AL112C) and streptavidin donor (PerkinElmer Cat. No. 6760002) beads (10 μg/mL each) was added and incubation continued at RT for 60 min. Alpha (amplified luminescent proximity homogeneous assay) signal was measured on an Envision multi-label plate reader at the end of the incubation. All steps were conducted under dim fluorescent light.
These percent inhibition values were regressed against compound concentrations in the assay using four parameter logit non-linear curve fitting (XLFit, IDBS). The IC50 values were derived from the curve fitting as inflection points on the dose-response curves and are set out in Table 14 below.

Structure (SMILES) | EC50 ([1]; Homo sapiens, MV4-11, 72 h) [µM] | IC50 [2] [µM] | EC50 ([1]; 72 h) [µM]
CC(C)N(C)C(=O)c1cc(F)ccc1-n1cc(C2CCCN(C[C@H]3CC[C@H](NS(C)(=O)=O)CC3)CC2)c2ccncc21 (relative stereo) [Example 41, 5-fluoro-N-isopropyl-N-methyl-2-(3-(1-((trans-4-(methylsulfonamido)cyclohexyl)methyl)azepan-4-yl)-1H-pyrrolo[2,3-c]pyridin-1-yl)benzamide] | < 0.1 | < 0.1 | 
CC(C)N(C)C(=O)c1cc(F)ccc1-n1cc(C2CCC(N3CCNC(=O)C3)CC2)c2ccncc21 (stereo not drawn) [Example 116, 5-fluoro-N-isopropyl-N-methyl-2-(3-(4-(3-oxopiperazin-1-yl)cyclohexyl)-1H-pyrrolo[2,3-c]pyridin-1-yl)benzamide] |  | 0.1 to 1 | 
CC(C)N(C)C(=O)c1cc(F)ccc1-n1cc([C@H]2CC[C@@H](N3CCOCC3)CC2)c2ccncc21 [Example 118, 5-fluoro-N-isopropyl-N-methyl-2-(3-(cis-4-morpholinocyclohexyl)-1H-pyrrolo[2,3-c]pyridin-1-yl)benzamide] |  | < 0.1 | 
CC(C)N(C)C(=O)c1cc(F)ccc1-n1cc([C@H]2CC[C@H](N3CCC(C(=O)O)CC3)CC2)c2ccncc21 [Example 119, 1-(trans-4-(1-(4-fluoro-2-(isopropyl(methyl)carbamoyl)phenyl)-1H-pyrrolo[2,3-c]pyridin-3-yl)cyclohexyl)piperidine-4-carboxylic acid] |  | 0.1 to 1 | 
CC(C)N(C)C(=O)c1cc(F)ccc1-n1cc([C@H]2CC[C@@H](N3CCC(C(=O)O)CC3)CC2)c2ccncc21 [Example 120, 1-(cis-4-(1-(4-fluoro-2-(isopropyl(methyl)carbamoyl)phenyl)-1H-pyrrolo[2,3-c]pyridin-3-yl)cyclohexyl)piperidine-4-carboxylic acid] |  | 0.1 to 1 | 
CC(C)N(C)C(=O)c1cc(F)ccc1-n1cc([C@H]2CC[C@H](NC(=O)c3ccccc3)CC2)c2ccncc21 [Example 129, 2-(3-(trans-4-benzamidocyclohexyl)-1H-pyrrolo[2,3-c]pyridine-1-yl)-5-fluoro-N-isopropyl-N-methylbenzamide] |  | ≥ 1 | 
CC(C)N(C)C(=O)c1cc(F)ccc1-n1cc([C@H]2CC[C@H](NC(=O)C3CCCCC3)CC2)c2ccncc21 [Example 130, 2-(3-(trans-4-(cyclohexanecarboxamido)cyclohexyl)-1H-pyrrolo[2,3-c]pyridin-1-yl)-5-fluoro-N-isopropyl-N-methylbenzamide] |  | ≥ 1 | 
CC(C)N(C)C(=O)c1cc(F)ccc1-n1cc(C2CCN(C(=O)C3Cc4ccccc4C3)CC2)c2ccncc21 [Example 132, 2-(3-(1-(2,3-dihydro-1H-indene-2-carbonyl)piperidin-4-yl)-1H-pyrrolo[2,3-c]pyridin-1-yl)-5-fluoro-N-isopropyl-N-methylbenzamide] |  | < 0.1 | 
CC(C)N(C)C(=O)c1cc(F)ccc1-n1cc(C2CCN(C(=O)Cc3ccccc3)CC2)c2ccncc21 [Example 133, 5-fluoro-N-isopropyl-N-methyl-2-(3-(1-(2-phenylacetyl)piperidin-4-yl)-1H-pyrrolo[2,3-c]pyridin-1-yl)benzamide] |  | 0.1 to 1 | 
CC(C)N(C)C(=O)c1cc(F)ccc1-n1c(=S)n(C2CCCN(Cc3ccc4[nH]c(=O)[nH]c4c3)C2)c2ccncc21 (stereo not drawn) [Example 135, 5-fluoro-N-isopropyl-N-methyl-2-(1-(1-((2-oxo-2,3-dihydro-1H-benzo[d]imidazol-5-yl)methyl)piperidin-3-yl)-2-thioxo-1,2-dihydro-3H-imidazo[4,5-c]pyridin-3-yl)benzamide] |  | 0.1 to 1 | 
CC(C)N(C)C(=O)c1cc(F)ccc1-n1cc(C2CCN(C(=O)OC(C)(C)C)CC2)c2ccncc21 [Int. 1, tert-butyl 4-(1-(4-fluoro-2-(isopropyl(methyl)carbamoyl)phenyl)-1H-pyrrolo[2,3-c]pyridin-3-yl)piperidine-1-carboxylate] |  | 0.1 to 1 | 
CC(C)N(C)C(=O)c1cc(F)ccc1-n1cc(C2CCCN(C(=O)OC(C)(C)C)C2)c2ccncc21 (stereo not drawn) [Int. 2, tert-butyl 3-(1-(4-fluoro-2-(isopropyl(methyl)carbamoyl)phenyl)-1H-pyrrolo[2,3-c]pyridin-3-yl)piperidine-1-carboxylate] |  | ≥ 1 | 
CC(C)N(C(=O)c1cc(F)ccc1-n1cc(C2CCCN(C(=O)OC(C)(C)C)C2)c2ccncc21)C(C)C (stereo not drawn) [Int. 10, tert-butyl 3-(1-(2-(diisopropylcarbamoyl)-4-fluorophenyl)-1H-pyrrolo[2,3-c]pyridin-3-yl)piperidine-1-carboxylate] |  | ≥ 1 | 
CC(C)N(C)C(=O)c1cc(F)ccc1-n1cc(C2C[C@@H](C)N[C@@H](C)C2)c2ccncc21 (stereo partly drawn) [Int. 13, 2-(3-((2S,6R)-2,6-dimethylpiperidin-4-yl)-1H-pyrrolo[2,3-c]pyridin-1-yl)-5-fluoro-N-isopropyl-N-methylbenzamide] |  | 0.1 to 1 | 

Results, then the compound that gave them:

EC50 ([1]; Homo sapiens, MV4-11, 72 h) [µM] | IC50 [2] [µM] | EC50 ([1]; 72 h) [µM] | Structure (SMILES)
< 0.1 | < 0.1 |  | CC(C)N(C)C(=O)c1cc(F)ccc1-n1cc(C2CCCN(Cc3ccc4[nH]c(=O)[nH]c4c3)C2)c2ccncc21 (single isomer, unassigned) [Example 43A, 5-fluoro-N-isopropyl-N-methyl-2-(3-(1-((2-oxo-2,3-dihydro-1H-benzo[d]imidazol-5-yl)methyl)piperidin-3-yl)-1H-pyrrolo[2,3-c]pyridin-1-yl)benzamide]
< 0.1 | < 0.1 |  | CC(C)N(C)C(=O)c1cc(F)ccc1-n1cc([C@H]2CCCN(Cc3ccc4c(c3)[nH]c(=O)n4CCO)C2)c2ccncc21 (single isomer, unassigned) [Example 44A]
< 0.1 | < 0.1 |  | CC(C)N(C)C(=O)c1cc(F)ccc1-n1cc(C2CCCN(Cc3ccc4c(c3)[nH]c(=O)n4CCO)C2)c2ccncc21 (single isomer, unassigned) [Example 44B, 5-fluoro-2-(3-(1-((1-(2-hydroxyethyl)-2-oxo-2,3-dihydro-1H-benzo[d]imidazol-5-yl)methyl)piperidin-3-yl)-1H-pyrrolo[2,3-c]pyridin-1-yl)-N-isopropyl-N-methylbenzamide]
< 0.1 | < 0.1 |  | CCN(C(=O)c1cc(F)ccc1-n1cc(C2CCCN(Cc3ccc4[nH]c(=O)[nH]c4c3)C2)c2ccncc21)C(C)C (single isomer, unassigned) [Example 47A]
 | < 0.1 | < 0.1 | CCN(C(=O)c1cc(F)ccc1-n1cc(C2CCCN(Cc3ccc4[nH]c(=O)[nH]c4c3)C2)c2ccncc21)C(C)C (single isomer, unassigned) [Example 47B]
 | ≥ 1 |  | CC(C)N(C)C(=O)c1cc(F)ccc1-n1cc(C2CCC3(CC2)OCCO3)c2ccncc21 [Int. 17A, 2-(3-(1,4-dioxaspiro[4.5]decan-8-yl)-1H-pyrrolo[2,3-c]pyridin-1-yl)-5-fluoro-N-isopropyl-N-methylbenzamide]
 | 0.1 to 1 |  | CC(C)N(C)C(=O)c1cc(F)ccc1-n1cc(-c2ccc3c(c2)CCNC3)c2ccncc21 [Int. 17C, 5-fluoro-N-isopropyl-N-methyl-2-(3-(1,2,3,4-tetrahydroisoquinolin-6-yl)-1H-pyrrolo[2,3-c]pyridin-1-yl)benzamide]

— US10899758B2, “Inhibitors of the menin-MLL interaction” (Vitae Pharmaceuticals, LLC, priority 2016, dated 2021)
